Results published in US9186361B2, “Compounds and compositions for the treatment of parasitic diseases” (Novartis AG, priority 2013, dated 2015).

What was measured:
Type in all cases: cell-based
[1] = system: L. donovani HU3 strain in mouse peritoneal macrophages; experiment: Proliferation of L. donovani in mouse peritoneal macrophages (SybrGreen, high-content imaging); details: Leishmania donovani, Peritoneal macrophage, 120 h; infected mouse peritoneal macrophages, 5 days; read-out: L. donavani Macrophage EC50
Source text: The activity of a compound according to the present invention for inhibition of parasitemai can be assessed by the parasite proliferation assay. The assay measures the increase in the parasite number in the assayed plate well using a DNA intercalating dye, SYBR Green I® dye (INVITROGEN) to stain Leishmania cell nuclei. It is understood that the assays illustrate the invention without in any way limiting the scope of the invention.
L. donovani HU3 strain is propagated by infecting BALBc mice through tail vein injection with 10^7 Leishmania parasites. Infected mice are allowed to develop infection during 9-11 weeks post-infection. During this time, the parasites accumulate in the infected mouse spleens to large numbers, and the infected mice serve as the source of parasites for the in vitro measurement of compound efficacies. To assay a compound for anti-leishmanial activity, peritoneal macrophages isolated from non-infected BALBc mice are seeded into 384-well plates at density 2×10^4 macrophages per well in 25 mL of medium (RPMI1640, 10% fetal serum albumin, 10 mM HEPES, 1 mM sodium pyruvate, 1% Pen/Strep). Subsequently, the seeded plates are placed into an incubator set to maintain 37° C. temperature and atmosphere with 5% CO2. The next day, Leishmania parasites are isolated from the spleens of mice infected for 9-11 weeks and 4×10^5 isolated parasites in […] of the above media are added to each plate well. Plates are then returned into incubators and infection is allowed to proceed for 24 hours. After the infection of macrophages is completed, […] of compounds of the invention in the above medium, which also contains 5% DMSO, are added to plate wells containing infected macrophages. At the same time control compounds (miltefosine and amphotericin B) and DMSO are added to plates to serve as the positive and negative controls, respectively. After the compound addition, the plates are returned into incubator and cells infected with parasites are cultured for 5 days. At the end of cultivation, […] of 8% paraformaldehyde is added to plate wells and incubated for 15 min at room temperature. Following the incubation, the paraformaldehyde from plate wells is aspirated, and […] of PBS containing 0.2% Triton X-100 is added to wells. After 15 min incubation, the solution is aspirated from wells again, and replaced with SybrGreen Dye solution in PBS (1:125,000 dilution). Infected cells are imaged with Evotec Opera high-content microscope, and the number of parasites in well is determined by counting parasite nuclei visualized by staining with SybrGreen dye. The percentage inhibition of 50%, EC50, is calculated for each compound.
The inhibitory efficacy of the compounds of the invention against proliferation of L. donovani in mouse peritoneal macrophages is provided in Table I.

[2] = system: Trypanosoma cruzi amastigotes cultured in 3T3 fibroblast cells; experiment: Assay for proliferation of kinetoplastid parasite Trypanosoma cruzi (beta-galactosidase/CPRG readout); details: NIH3T3, 144 h, Tulahuen strain in 3T3 cells, 6 day incubation, read-out: T cruzi EC50
Source text: Compounds of the invention can be assayed to measure their capacity to inhibit proliferation of kinetoplastid parasite Trypanosoma cruzi. The screening procedure is for identifying compounds with inhibitor activity against Trypanosoma cruzi amastigotes cultured in 3T3 fibroblast cells. The assay is done using the mammalian stage (amastigotes) of T. cruzi that replicates in the intracellular space of host cells. The host cells are initially infected with the culture-derived trypomastigotes that rapidly invade and then divide as amastigotes. The protocol uses the Tulahuen strain of T. cruzi that has been engineered to express the E. coli beta-galactosidase gene (Lac-Z) (Antimicr. Agents Chemoth. 40:2592, 1996). This allows for a colorimetric readout by using the substrate CPRG and an absorbance plate reader.
3T3 fibroblast cells are re-suspended in RPMI-1640 medium without phenol red medium supplemented with 10% FBS (heat inactivated), 100 μg/ml penicillin, and 100 μg/ml streptomycin. Forty μL of suspension (1,000 cells) is dispensed into 384-well plates and incubated overnight at 37° C. temperature and in atmosphere containing 5% CO2. The following day, 100 nL of compounds of the invention in DMSO are added to plate wells containing 3T3 cells. At the same time control compounds (benznidazole and nifurtimox) and DMSO are added to plates to serve as the positive and negative controls, respectively. After that, 10 μL of media containing 10,000 T. cruzi trypomastigotes are added to each plate well and plates are placed back into incubators. After 6 day incubation, 10 μL of reagent solution (0.6 mM CPRG, 0.6% NP-40 in PBS) is added to plates and incubated at room temperature for 2 hours. Absorbance is then measured on SpectraMax Gemini fluorimeter to determine relative number of T. cruzi cells present in each plate well. The percentage inhibition of 50%, EC50, is calculated for each compound.

[3] = system: Leishmania donovani axenic amastigote parasites; experiment: Assay for Leishmania proliferation in vitro (axenic amastigotes, Cell TiterGlo); details: 48 h, 2 day incubation, read-out: L. donovani amastigotes EC50
Method: Leishmania donovani axenic amastigote parasites are grown at 37° C., 5% CO2 in media made of RPMI 1640, 4 mM L-glutamine, 20% heat inactivated FBS, 100 units/ml of penicillin and 100 μg/ml of streptomycin, 23 μM Folic Acid, 100 μM Adenosine, 22 mM D-glucose, 25 mM MES. The pH of media is adjusted to 5.5 at 37° C. using HCl. 20 μL of media is first dispensed into 384 well plates and […] of the compounds of invention in DMSO are added to the plate wells. At the same time control compounds and DMSO are added to plates to serve as the positive and negative controls, respectively. 40 μL of parasite culture (9600 parasites) are then added to the plate wells. The plates are then placed into incubators. After 2 day incubation, 20 μL of Cell TiterGlo (Promega) is added to the plate wells. The luminescence signal of each well is measured using the Envision reader (Perkin Elmer). The percentage inhibition of 50%, EC50, is calculated for each of the compounds.

Structure (SMILES) | EC50 [1] | EC50 [2] | EC50 [3]
CC(C)OC(=O)Nc1cnc2nc(-c3cc(NC(=O)c4ccco4)ccc3Cl)n(C(=O)OC(C)C)c2c1 [Example 7, propan-2-yl 2-[2-chloro-5-(furan-2-amido)phenyl]-6-{[(propan-2-yloxy)carbonyl]amino}-1H-imidazo[4,5-b]pyridine-1-carboxylate] | 1.35 µM | 0.147 µM | 0.64 µM
NCCC(=O)Nc1cnc2nc(-c3cc(NC(=O)c4ccc(F)o4)ccc3Cl)[nH]c2c1 [Example 73, N-{3-[6-(3-aminopropanamido)-1H-imidazo[4,5-b]pyridin-2-yl]-4-chlorophenyl}-5-fluorofuran-2-carboxamide] | > 50 µM | > 20 µM | > 25 µM
COCCC(=O)Nc1cnc2nc(-c3cc(NC(=O)c4ccco4)ccc3Cl)[nH]c2c1 [Example 19, N-{4-chloro-3-[6-(3-methoxypropanamido)-1H-imidazo[4,5-b]pyridin-2-yl]phenyl}furan-2-carboxamide] | 25.5 µM | > 20 µM | 13.3 µM
NCC(=O)Nc1cnc2nc(-c3cc(NC(=O)c4ccco4)ccc3Cl)[nH]c2c1 [Example 33, N-{3-[6-(2-aminoacetamido)-1H-imidazo[4,5-b]pyridin-2-yl]-4-chlorophenyl}furan-2-carboxamide] | > 50 µM | 19.1 µM | > 25 µM
CS(=O)(=O)Nc1ccc(Cl)c(-c2nc3ncc(NS(C)(=O)=O)cc3[nH]2)c1 [Example 58, N-[2-(2-chloro-5-methanesulfonamidophenyl)-1H-imidazo[4,5-b]pyridin-6-yl]methanesulfonamide] | > 50 µM | > 20 µM | > 25 µM
COc1ccc(C(=O)Nc2ccc(Cl)c(-c3nc4ncc(NC(=O)OC(C)C)cc4[nH]3)c2)o1 [Example 39, propan-2-yl N-{2-[2-chloro-5-(5-methoxyfuran-2-amido)phenyl]-1H-imidazo[4,5-b]pyridin-6-yl}carbamate] | 17.7 µM | 6.7 µM | 13.8 µM
Nc1cnc2nc(-c3cccc(NC(=O)c4ccc(F)o4)c3)[nH]c2c1 [Example 79, N-(3-{6-amino-1H-imidazo[4,5-b]pyridin-2-yl}phenyl)-5-fluorofuran-2-carboxamide] | 24.5 µM | 1.46 µM | > 25 µM
Cc1nc(C)c(C(=O)Nc2cnc3nc(-c4cc(NC(=O)c5ccco5)ccc4Cl)[nH]c3c2)s1 [Example 5, N-{2-[2-chloro-5-(furan-2-amido)phenyl]-1H-imidazo[4,5-b]pyridin-6-yl}-2,4-dimethyl-1,3-thiazole-5-carboxamide] | > 50 µM | 1.86 µM | 0.57 µM
CCOC(=O)Nc1cnc2nc(-c3cc(NC(=O)c4ccc(C#N)o4)ccc3Cl)[nH]c2c1 [Example 61, ethyl N-{2-[2-chloro-5-(5-cyanofuran-2-amido)phenyl]-1H-imidazo[4,5-b]pyridin-6-yl}carbamate] | 3.13 µM | > 20 µM | 2.69 µM
O=C(Nc1ccc(Cl)c(-c2nc3ncc(NC(=O)C4CC(F)C4)cc3[nH]2)c1)c1ccco1 (stereo not drawn) [Example 38, N-(4-chloro-3-{6-[(3-fluorocyclobutane)amido]-1H-imidazo[4,5-b]pyridin-2-yl}phenyl)furan-2-carboxamide] | 3.7 µM | 4.4 µM | 2.13 µM
O=C(Nc1ccc(Cl)c(-c2nc3ncc([N+](=O)[O-])cc3[nH]2)c1)c1ccco1 [Example 8, N-(4-chloro-3-{6-nitro-1H-imidazo[4,5-b]pyridin-2-yl}phenyl)furan-2-carboxamide] | 12.4 µM | 1.02 µM | 0.96 µM
CNc1cnc2nc(-c3cc(NC(=O)c4ccco4)ccc3Cl)[nH]c2c1 [Example 11, N-{4-chloro-3-[6-(methylamino)-1H-imidazo[4,5-b]pyridin-2-yl]phenyl}furan-2-carboxamide] | 16.6 µM | 1.27 µM | 1.84 µM
CC(C)NC(=O)Nc1cnc2nc(-c3cc(NC(=O)c4ccco4)ccc3Cl)[nH]c2c1 [Example 24, N-[4-chloro-3-(6-{[(propan-2-yl)carbamoyl]amino}-1H-imidazo[4,5-b]pyridin-2-yl)phenyl]furan-2-carboxamide] | > 39.2 µM | > 20 µM | 23.2 µM
O=C(Nc1ccc(Cl)c(-c2nc3ncc(NC(=O)C4CCNCC4)cc3[nH]2)c1)c1ccco1 [Example 46, N-{2-[2-chloro-5-(furan-2-amido)phenyl]-1H-imidazo[4,5-b]pyridin-6-yl}piperidine-4-carboxamide] | > 50 µM | > 20 µM | > 25 µM
CC(C)C(=O)Nc1cnc2nc(-c3cc(NC(=O)c4ccco4)ccc3Cl)[nH]c2c1 [Example 10, N-{4-chloro-3-[6-(2-methylpropanamido)-1H-imidazo[4,5-b]pyridin-2-yl]phenyl}furan-2-carboxamide] | 2.29 µM | 3.7 µM | 1.17 µM
CC(C)S(=O)(=O)Nc1ccc(Cl)c(-c2nc3ncc(NS(=O)(=O)C(C)C)cc3[nH]2)c1 [Example 59, N-{2-[2-chloro-5-(propane-2-sulfonamido)phenyl]-1H-imidazo[4,5-b]pyridin-6-yl}propane-2-sulfonamide] | > 22.8 µM | > 20 µM | > 25 µM
CC1(C(=O)Nc2cnc3nc(-c4cc(NC(=O)c5ccco5)ccc4Cl)[nH]c3c2)COC1 [Example 43, N-{4-chloro-3-[6-(3-methyloxetane-3-amido)-1H-imidazo[4,5-b]pyridin-2-yl]phenyl}furan-2-carboxamide] | 47.4 µM | > 20 µM | > 25 µM
O=C(CCO)Nc1cnc2nc(-c3cc(NC(=O)c4ccco4)ccc3Cl)[nH]c2c1 [Example 25, N-{4-chloro-3-[6-(3-hydroxypropanamido)-1H-imidazo[4,5-b]pyridin-2-yl]phenyl}furan-2-carboxamide] | > 50 µM | > 20 µM | 23.2 µM
CC(C)CC(=O)Nc1cnc2nc(-c3cc(NC(=O)c4ccco4)ccc3Cl)[nH]c2c1 [Example 14, N-{4-chloro-3-[6-(3-methylbutanamido)-1H-imidazo[4,5-b]pyridin-2-yl]phenyl}furan-2-carboxamide] | 3.3 µM | 3.3 µM | 4.5 µM
O=C(Nc1ccc(Cl)c(-c2nc3ncc(NCc4cccnc4O)cc3[nH]2)c1)c1ccco1 [Example 30] | > 50 µM | > 20 µM | > 25 µM
